# Reference: US20220280493A1 (priority 2021, published 2022)
# Columns and labels:
# [1] = test system: "Long-Haul" Covid-19; assay: Treatment of "Long-Haul" Covid-19 symptoms in the same patient; format: in vivo, human; conditions: for effect of added direct intranasal/lung inhalation: 0.1 ml of the 6% solution, 1-2 times/day
# Protocol: After patient had discontinued treatment above for several weeks after the first round of disease, subsequent putative recurrent post-acute (“long-haul”) symptoms of Covid-19. These included malaise, fatigue, brain fog, myalgia and musculoskeletal pain, and shortness of breath. […] Treatment was titrated to a clinical response, with a maximum dose of 200 mg/day of Tempol. […] At two such interludes, in place of the Tempol, patient took 100 mg of phenylbutylnitrone (PBN).
# [2] = test system: Covid-19, Omicron strain; assay: Treatment of "Break-Thru" Covid-19 infection in the same patient; format: in vivo, human
# [3] = test system: nonrespiratory coronavirus unrelated to SARS-CoV-2; conditions: induced by a nonrespiratory coronavirus; cited from earlier work
Structure (SMILES),effect of added direct intranasal/lung inhalation [1],"response of long-haul symptoms (malaise, fatigue, brain fog, myalgia and musculoskeletal pain, shortness of breath) ([1]; human, in vivo)","symptoms on withdrawal and repeat treatment ([1]; treatment withdrawn, then repeated)","time to alleviation of upper respiratory tract congestion ([2]; inhalation of 20 mg, one 0.1 ml spritz of the 6% solution per nostril, followed by insufflation)",murine viral encephalomyelitis [3],"long-haul symptoms, oral treatment in place of Tempol ([1]; 100 mg, at two interludes)","long-haul symptoms, nasal/pulmonary inhalation ([1]; 0.1 ml of a 5% solution in water 3-4 times per day)","alleviation of upper respiratory symptoms, alternative intranasal treatments ([2]; intranasal 3% gel (Q-tip) or insufflation of 0.2 ml of 3% solution, compared with 6% Tempol spray)"
"CC1(C)CC(O)CC(C)(C)N1O [Tempol-H, the hydroxylamine reduced form of the nitroxide 4-hydroxy-2,2,6,6-tetramethylpiperidin-1-yloxy]",proved helpful,,,,,,,
"CC1(C)CC(O)CC(C)(C)N1[O] [Tempol, 4-hydroxy-TEMPO]",proved helpful,responded reversibly,"Symptoms returned when the treatment was withdrawn, but responded to repeat treatment",5 to 10 min,ameliorates,,,
"CC(C)(C)[N+]([O-])=Cc1ccccc1 [PBN, 1-alpha-phenyl-tert-butyl nitrone]",,,,,,some subjective clearing of symptoms,significant symptomatic relief,effective but the response was slower
